Counter-ions that a name gives are not always drawn.

With `C(/C1=NCCN1)=C(/c1cccc(C2OCCO2)c1)c1ccccn1` (as salt: fumarate) [Example 32, 2-[2-(4,5-Dihydro-1H-imidazol-2-yl)-1-(3-[1,3]dioxolan-2-yl-phenyl)-vinyl]-pyridine], the melting point (commonly the temperature, or range, at which the solid turns liquid) fell in the range of 98 to 98.5 °C.

For the compound `c1ccc(C(CC2=NCCN2)c2cccc(C3OCCO3)c2)nc1` (stereo not shown) (as salt: fumarate) [Example 33, 2-[2-(4,5-Dihydro-1H-imidazol-2-yl)-1-(3-[1,3]dioxolan-2-yl-phenyl)ethyl]pyridine], the melting point was in the range of 162 to 162.5 °C.

The compound `OCc1cccc(C(CC2=NCCN2)c2ccccn2)c1` (stereo not shown) (as salt: fumarate) [Example 35, 3-[2-(4,5-Dihydro-1H-imidazol-2-yl)-1-pyridin-2-yl-ethyl]-phenyl-methanol] showed a melting point of 114 to 115 °C.

In the case of `Oc1cc2c(c(C(CC3=NCCN3)c3ccccn3)c1)OCC2` (stereo not shown) (as salt: hydroiodid) [Example 30, 7-[2-(4,5-Dihydro-1H-imidazol-2-yl)-1-pyridin-2-yl-ethyl]-2,3-dihydro-benzofuran-5-ol], the melting point lay in the range of 186 to 187 °C.

As to `O=Cc1cccc(C(CC2=NCCN2)c2ccccn2)c1` (stereo not shown) (as salt: fumarate) [Example 34, 3-[2-(4,5-Dihydro-1H-imidazol-2-yl)-1-pyridin-2-yl-ethyl]-benzaldehyde], the melting point is 138 to 139 °C.

Compound `c1ccc(C(CC2=NCCN2)c2cccc3c2OCC3)nc1` (stereo not shown) (as salt: fumarate) [Example 40, 1-(2,3-Dihydro-7-benzofuranyl)-2-(4,5-dihydro-2-imidazolyl)-1-(2-pyridyl)-ethane] showed a melting point of 166 to 167 °C.

With `Nc1cccc(C(CC2=NCCN2)c2ccccn2)c1` (stereo not shown) (as salt: fumarate) [Example 39, 3-[2-(4,5-Dihydro-1H-imidazol-2-yl)-1-pyridin-2-yl-ethyl]-phenylamine], the melting point was in the range of 154 to 155 °C.

`Nc1cc2c(c(C(CC3=NCCN3)c3ccccn3)c1)OCC2` (stereo not shown) [Example 41, 7-[2-(4,5-Dihydro-1H-imidazol-2-yl)-1-pyridin-2-yl-ethyl]-2,3-dihydro-benzofuran-5-ylamine] returned a melting point of 143 to 144 °C.

Regarding `FC(F)(F)c1cccc(C(CC2=NCCN2)c2ccc3ccccc3n2)c1` (stereo not shown) [Example 38, ethyl compound, 2-[2-(4,5-Dihydro-1H-imidazol-2-yl)-1-(3-trifluoromethyl-phenyl)-ethyl]-quinoline], the melting point fell in the range of 92 to 93 °C.

As for `FC(F)(F)c1cccc(/C(=C/C2=NCCN2)c2ccc3ccccc3n2)c1` [Example 38, vinyl compound, 2-[2-(4,5-Dihydro-1H-imidazol-2-yl)-1-(3-trifluoromethyl-phenyl)-vinyl]-quinoline], the melting point worked out at 76.5 °C.

The values are drawn from patent US20020132812A1, “Oral hypoglycaemic agents” (priority 2000, published 2002).
